Assay results reported in US5891917A, “Certain acrylonitrile-sulfonamide derivatives” (Sugen, Inc., priority 1997, dated 1999).

Biological target: T1, FLK-1 receptor (Mus musculus, UniProt P35918)
T1 construct: expressed in transfected cells; host or cells: NIH3T3C7#3 cells (FLK-1 infected)
Assay: ELISA assay to measure kinase activity of FLK-1 receptor in FLK-1/NIH cells
Type: cell-based, murine
Conditions: 50 ng/ml VEGF, read-out: ELISA DATA: FLK-1-(Cell.)
Text: For purposes of this application, although the nomenclature of the human and murine counterparts of the generic "flk-I" receptor differ, they are, in many respects, interchangeable. The murine receptor, FLK1, and its human counterpart, KDR, share a sequence homology of 93.4% within the intracellular domain. Likewise, murine FLK-I binds human VEGF with the same affinity as mouse VEGF, and accordingly, is activated by the ligand derived from either species. Millauer et al., 1993, Cell 72:835-846; Quinn et al., 1993, Proc. Natl. Acad. Sci. USA 90:7533-7537. FLK-1 also associates with and subsequently tyrosine phosphorylates human RTK substrates (e.g., PLC-γ or p85) when coexpressed in 293 cells (human embryonal kidney fibroblasts).
ELISA Assay To Measure Kinase Activity Of FLK-I Receptor In FLK-I/NIH Cells
An ELISA assay was conducted to measure the kinase activity of the FLK-I receptor and more specifically, the inhibition or activiation of protein tyrosine kinase activity on the FLK-I receptor.
k. N1H3T3C7#3 Cells (FLK-I infected cells);
1. Coat Corning 96-well elisa plates with 1.0 ug per well Cappel Anti-rabbit IgG antibody in 0.1M Na2CO3 pH 9.6. Bring final volume to 150 ul per well. Coat plates overnight at 4° C. Plates can be kept up to two weeks when stored at 4° C.
2. […]

T1 sequence (P35918 20-1345): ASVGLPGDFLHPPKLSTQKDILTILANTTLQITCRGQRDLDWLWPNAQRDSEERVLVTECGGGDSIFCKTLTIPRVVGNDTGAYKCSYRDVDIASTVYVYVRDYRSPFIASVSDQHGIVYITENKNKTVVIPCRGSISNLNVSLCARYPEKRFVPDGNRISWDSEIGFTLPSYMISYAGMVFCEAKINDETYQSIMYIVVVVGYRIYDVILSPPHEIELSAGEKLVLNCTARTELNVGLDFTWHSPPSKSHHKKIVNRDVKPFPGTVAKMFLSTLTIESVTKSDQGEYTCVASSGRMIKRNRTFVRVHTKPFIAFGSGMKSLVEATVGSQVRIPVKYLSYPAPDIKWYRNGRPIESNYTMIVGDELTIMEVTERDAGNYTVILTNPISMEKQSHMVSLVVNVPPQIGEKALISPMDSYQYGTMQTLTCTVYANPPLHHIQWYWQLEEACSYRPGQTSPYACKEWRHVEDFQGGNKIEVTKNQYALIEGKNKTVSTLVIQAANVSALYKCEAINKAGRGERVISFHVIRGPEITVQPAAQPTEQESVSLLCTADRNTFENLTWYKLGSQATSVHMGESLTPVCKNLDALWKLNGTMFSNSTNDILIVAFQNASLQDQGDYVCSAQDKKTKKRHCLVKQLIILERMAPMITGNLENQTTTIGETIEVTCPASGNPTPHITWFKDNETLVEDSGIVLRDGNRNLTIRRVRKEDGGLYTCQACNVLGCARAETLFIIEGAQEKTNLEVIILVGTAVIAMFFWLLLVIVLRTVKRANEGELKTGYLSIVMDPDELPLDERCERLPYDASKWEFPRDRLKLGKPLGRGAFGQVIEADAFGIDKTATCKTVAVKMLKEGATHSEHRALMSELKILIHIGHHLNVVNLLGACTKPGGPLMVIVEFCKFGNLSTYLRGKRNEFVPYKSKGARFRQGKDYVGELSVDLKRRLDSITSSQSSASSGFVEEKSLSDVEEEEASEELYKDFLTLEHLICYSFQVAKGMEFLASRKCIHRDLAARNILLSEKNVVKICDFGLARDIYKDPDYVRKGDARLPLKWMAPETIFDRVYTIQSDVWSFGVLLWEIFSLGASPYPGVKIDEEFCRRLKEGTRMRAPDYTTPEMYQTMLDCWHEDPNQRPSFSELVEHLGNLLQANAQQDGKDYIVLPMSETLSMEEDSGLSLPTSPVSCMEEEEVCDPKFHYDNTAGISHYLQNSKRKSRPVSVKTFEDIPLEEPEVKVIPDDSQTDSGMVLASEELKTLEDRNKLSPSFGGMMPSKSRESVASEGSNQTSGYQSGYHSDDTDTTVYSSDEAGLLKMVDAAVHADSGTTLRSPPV

| SMILES | IC50 |
| --- | --- |
| CC(C)c1cc(/C=C(\C#N)S(=O)(=O)c2ccccn2)cc(C(C)C)c1O [Compound 747] | > 50 µM |
| Cc1cc(/C=C(\C#N)S(=O)(=O)c2ccccc2)cc(C)c1O [Compound 748] | < 50 µM |
